Measured values from ChEMBL document CHEMBL1201862, “PubChem BioAssay data set” (2004).
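The compound was tested at five concentrations on cells cultured in 96-well plates, with a 48-hour exposure period. GI50 marks 50% less growth.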 The source made the active and inactive calls. No stated cut-off is given here; in the data, active = GI50 up to about 1.1 µM and inactive = higher.

Tests used:
Experiment in all cases: inhibition of tumour cell growth, NCI panel, 48 h
CCRF-CEM = tested on: CCRF-CEM
NCI/ADR-RES = tested on: NCI/ADR-RES
SF-295 = tested on: SF-295
UACC-257 = tested on: UACC-257
Hs-578T = tested on: Hs-578T
786-0 = tested on: 786-0
PC-3 = tested on: PC-3
HT-29 = tested on: HT-29
IGROV-1 = tested on: IGROV-1
SNB-19 = tested on: SNB-19
SK-MEL-5 = tested on: SK-MEL-5
EKVX = tested on: EKVX
HCC 2998 = tested on: HCC 2998
SN12C = tested on: SN12C
MDA-MB-231 = tested on: MDA-MB-231
Malme-3M = tested on: Malme-3M
SK-OV-3 = tested on: SK-OV-3
T47D = tested on: T47D
HOP-92 = tested on: HOP-92
UO-31 = tested on: UO-31

Compound	GI50 (CCRF-CEM)	GI50 (NCI/ADR-RES)	GI50 (SF-295)	GI50 (UACC-257)	GI50 (Hs-578T)	GI50 (786-0)	GI50 (PC-3)	GI50 (HT-29)	GI50 (IGROV-1)	GI50 (SNB-19)	GI50 (SK-MEL-5)	GI50 (EKVX)	GI50 (HCC 2998)	GI50 (SN12C)	GI50 (MDA-MB-231)	GI50 (Malme-3M)	GI50 (SK-OV-3)	GI50 (T47D)	GI50 (HOP-92)	GI50 (UO-31)
CC(=O)N1CCn2c1nc1cc(Cl)ccc12	> 100 µM (inactive)	> 100 µM (inactive)	47.8 µM (inactive)	> 100 µM (inactive)	31.4 µM (inactive)	> 100 µM (inactive)	47.5 µM (inactive)	> 100 µM (inactive)	37.6 µM (inactive)	69 µM (inactive)	> 100 µM (inactive)	54.3 µM (inactive)	> 100 µM (inactive)	> 100 µM (inactive)	34.5 µM (inactive)	> 100 µM (inactive)	25.1 µM (inactive)	21.4 µM (inactive)	24.9 µM (inactive)	–
CC1=CCCC(C)(O)C2CC(CCC3(C)OC3CC1)C(C)C(=O)O2 (stereo not drawn)	> 100 µM (inactive)	> 100 µM (inactive)	> 100 µM (inactive)	> 100 µM (inactive)	> 100 µM (inactive)	> 100 µM (inactive)	> 100 µM (inactive)	> 100 µM (inactive)	> 100 µM (inactive)	> 100 µM (inactive)	> 100 µM (inactive)	> 100 µM (inactive)	> 100 µM (inactive)	> 100 µM (inactive)	> 100 µM (inactive)	> 100 µM (inactive)	> 100 µM (inactive)	> 100 µM (inactive)	> 10 µM (inactive)	> 100 µM (inactive)
O=[N+]([O-])/C(Cl)=C/C(=C1/Nc2ccccc2O1)[N+](=O)[O-]	13.3 µM (inactive)	24.3 µM (inactive)	26.7 µM (inactive)	5.79 µM (inactive)	27.2 µM (inactive)	31.8 µM (inactive)	14.1 µM (inactive)	32.8 µM (inactive)	33.1 µM (inactive)	17.4 µM (inactive)	22.2 µM (inactive)	18.8 µM (inactive)	14.6 µM (inactive)	36.1 µM (inactive)	30.1 µM (inactive)	14.3 µM (inactive)	24 µM (inactive)	32.6 µM (inactive)	24.7 µM (inactive)	15.7 µM (inactive)
CC(C)(O)CO/N=C1\C(=C2\C(=O)Nc3ccccc32)Nc2ccccc21	0.435 µM (active)	1.33 µM (inactive)	2.52 µM (inactive)	4.49 µM (inactive)	0.867 µM (active)	10.7 µM (inactive)	0.883 µM (active)	1.75 µM (inactive)	0.0895 µM (active)	4.24 µM (inactive)	0.423 µM (active)	1.65 µM (inactive)	0.991 µM (active)	12 µM (inactive)	2.01 µM (inactive)	4.3 µM (inactive)	0.158 µM (active)	0.631 µM (active)	3.48 µM (inactive)	0.348 µM (active)
c1ccc2c(c1)cc1c3[nH]c4ccccc4c3ccn21	8.32 µM (inactive)	> 10 µM (inactive)	> 10 µM (inactive)	> 10 µM (inactive)	> 10 µM (inactive)	> 10 µM (inactive)	> 10 µM (inactive)	> 10 µM (inactive)	> 10 µM (inactive)	> 10 µM (inactive)	> 10 µM (inactive)	> 10 µM (inactive)	> 10 µM (inactive)	> 10 µM (inactive)	> 10 µM (inactive)	1.65 µM (inactive)	> 10 µM (inactive)	> 10 µM (inactive)	> 10 µM (inactive)	> 10 µM (inactive)
NCCCc1c(-c2ccccc2)[nH]c(N)nc1=O	> 100 µM (inactive)	> 100 µM (inactive)	> 100 µM (inactive)	> 100 µM (inactive)	> 100 µM (inactive)	> 100 µM (inactive)	> 100 µM (inactive)	> 100 µM (inactive)	> 100 µM (inactive)	> 100 µM (inactive)	> 100 µM (inactive)	> 100 µM (inactive)	> 100 µM (inactive)	> 100 µM (inactive)	> 100 µM (inactive)	> 100 µM (inactive)	> 100 µM (inactive)	> 100 µM (inactive)	> 100 µM (inactive)	> 100 µM (inactive)
Nc1ncc(N)c(NCC2(CO)CC(CCc3ccccc3)C2)n1 (stereo not drawn)	0.413 µM (active)	12.4 µM (inactive)	11.1 µM (inactive)	8.85 µM (inactive)	9.55 µM (inactive)	8.47 µM (inactive)	5.89 µM (inactive)	6.21 µM (inactive)	7.94 µM (inactive)	11.1 µM (inactive)	3.13 µM (inactive)	8.47 µM (inactive)	11.3 µM (inactive)	7.67 µM (inactive)	4.65 µM (inactive)	11 µM (inactive)	12.2 µM (inactive)	1.11 µM (active)	3.39 µM (inactive)	1.19 µM (inactive)
CC(=O)CC1CCC(=O)/C=C/C(=O)OC(CC(C)=O)CCC(=O)/C=C/C(=O)O1 (stereo not drawn)	1.6 µM (inactive)	19.9 µM (inactive)	13.6 µM (inactive)	15.5 µM (inactive)	27.9 µM (inactive)	5.15 µM (inactive)	15 µM (inactive)	11.2 µM (inactive)	16.1 µM (inactive)	19.8 µM (inactive)	13.8 µM (inactive)	8.02 µM (inactive)	22.8 µM (inactive)	8.55 µM (inactive)	5.09 µM (inactive)	2.43 µM (inactive)	20.7 µM (inactive)	2.09 µM (inactive)	3.78 µM (inactive)	12.6 µM (inactive)
CC[C@@]1(O)C(=O)OCc2c1cc1n(c2=O)Cc2c-1nc1ccccc1c2/C=N\NC(=O)C[n+]1ccccc1	0.0357 µM (active)	0.817 µM (active)	0.247 µM (active)	2.82 µM (inactive)	> 64.1 µM (inactive)	0.231 µM (active)	4.49 µM (inactive)	2.33 µM (inactive)	7.08 µM (inactive)	0.267 µM (active)	0.366 µM (active)	> 28.1 µM (inactive)	8.13 µM (inactive)	0.119 µM (active)	64.6 µM (inactive)	3.95 µM (inactive)	0.617 µM (active)	0.0346 µM (active)	3.14 µM (inactive)	0.29 µM (active)
O=C(NNC(=S)Nc1ccc(Cl)cc1)C12CC3CC(CC(C3)C1)C2	1.29 µM (inactive)	3.56 µM (inactive)	5.87 µM (inactive)	6.15 µM (inactive)	17.1 µM (inactive)	5.15 µM (inactive)	3.19 µM (inactive)	3.78 µM (inactive)	3.34 µM (inactive)	5.15 µM (inactive)	3.85 µM (inactive)	5.73 µM (inactive)	7.1 µM (inactive)	6.52 µM (inactive)	3.88 µM (inactive)	7.98 µM (inactive)	9.79 µM (inactive)	4.59 µM (inactive)	11.3 µM (inactive)	1.38 µM (inactive)
C/C(=N/NC(N)=S)c1ccc[nH]1	> 100 µM (inactive)	> 100 µM (inactive)	> 100 µM (inactive)	> 100 µM (inactive)	> 100 µM (inactive)	> 100 µM (inactive)	> 100 µM (inactive)	> 100 µM (inactive)	> 100 µM (inactive)	> 100 µM (inactive)	> 100 µM (inactive)	> 100 µM (inactive)	> 100 µM (inactive)	> 100 µM (inactive)	> 100 µM (inactive)	> 100 µM (inactive)	> 100 µM (inactive)	84.3 µM (inactive)	> 100 µM (inactive)	> 100 µM (inactive)
CCCc1ccc(OCC(=O)N/N=C/c2c(-c3ccccc3)[nH]c3ccccc23)cc1	5.98 µM (inactive)	6.81 µM (inactive)	8.69 µM (inactive)	15.4 µM (inactive)	28.4 µM (inactive)	14.1 µM (inactive)	5.98 µM (inactive)	6.64 µM (inactive)	13.1 µM (inactive)	35.8 µM (inactive)	8.43 µM (inactive)	12.7 µM (inactive)	4.04 µM (inactive)	14 µM (inactive)	7.06 µM (inactive)	7.85 µM (inactive)	27.2 µM (inactive)	5.77 µM (inactive)	13.7 µM (inactive)	24 µM (inactive)
O=C(C(Cl)=C(Nc1ccccc1)Nc1ccccc1)C(Cl)Cl	28.5 µM (inactive)	40.6 µM (inactive)	34 µM (inactive)	82.8 µM (inactive)	> 100 µM (inactive)	22.5 µM (inactive)	36.9 µM (inactive)	21.2 µM (inactive)	32.1 µM (inactive)	26.2 µM (inactive)	14.9 µM (inactive)	22.6 µM (inactive)	19 µM (inactive)	25.5 µM (inactive)	40.5 µM (inactive)	20.3 µM (inactive)	37.6 µM (inactive)	12.4 µM (inactive)	21.8 µM (inactive)	33.6 µM (inactive)
C[N+](C)(C)c1nc(N)nc2c1ncn2C1OC(CO)C(O)C1O (stereo not drawn)	3.08 µM (inactive)	> 100 µM (inactive)	–	> 100 µM (inactive)	> 100 µM (inactive)	> 100 µM (inactive)	> 100 µM (inactive)	> 100 µM (inactive)	> 100 µM (inactive)	> 100 µM (inactive)	> 100 µM (inactive)	> 100 µM (inactive)	> 100 µM (inactive)	> 100 µM (inactive)	> 100 µM (inactive)	> 100 µM (inactive)	> 100 µM (inactive)	> 100 µM (inactive)	> 100 µM (inactive)	> 100 µM (inactive)
